From patent publication US4275065A, “Modulating the immune response with 2-substituted-3-hydroxythiazolo[2,3-b]b e” (American Home Products Corporation, priority 1980, dated 1981)

Columns and labels:
[1] = test system: antibody-secreting plaque-forming splenocytes (IgG and IgM); test: Cunningham modification of the Jerne assay (hemolytic plaque technique), IgM and IgG plaques per spleen; type: in vivo, CDF1 (Balb/c × DBA/2) mice; conditions: 100 mg/kg
Protocol: In this example, the compounds of the invention are tested for their effect on antibody-secreting plaque-forming splenocytes (IgG and IgM) in the Cunningham modification of the Jerne assay. This technique is able to detect, in a quantitative manner, antibody producing cells in response to antigen stimulus in the host mouse. For study of […] immune response, sheep erythrocytes (SRBC) are used (as in the present Example), while for humoral immune response, SRBC coupled with pneumococcal polysaccharide is used.
CDF1 (Balb/c × DBA/2) mice are immunized with 0.1 ml. of 10^8 sheep erythrocytes (SRBC) intraperitonially 4-5 days before the assay. The mice are separated into groups, with one group serving as a control and all other groups receiving compounds of the invention. The treated mice are dosed with drug on day one. […] The spleens of the sacrificed mice are excised and washed several times in RPMI 1640 with 10% fetal bovine serum. 100 λ of spleen cells are mixed with a drop of guinea pig complement, four drops of RPMI 1640 and a drop of 25% SRBC in a microtiter plate well and then pipetted into a Cunningham chamber. On day four, for IgM determinations, the chambers are incubated for 30 minutes at 37° C. Antibody, released by the small proportion of active cells, attaches to the surrounding erythrocytes which are lysed by complement leaving a small plaque up to 0.5 mm. in diameter. Since only cells releasing IgM antibody form plaques directly, a "developing" serum must be added to be able to form and view IgG plaques. Thus fifth or sixth day cultured spleen cells are further treated with rabbit antimouse IgG and then incubated for 45 minutes. Both IgM and IgG plaques are counted under a stereomicroscope.
In Table 1 are given the IgM and IgG plaque counts per spleen for mice treated with 6-chloro-2-phenylthiazolo[2,3-b]benzothiazol-3(2H)-one mesoionic didehydro derivative and for the controls:
The assay is repeated using the following compounds of the invention: 2-phenylthiazolo[2,3-b]benzothiazol-3(2H)-one mesoionic didehydro derivative (A), 6-chloro-2-(p-chlorophenyl)-thiazolo[2,3-b]benzothiazol-3(2H)-one mesoionic didehydro derivative (B) and 6-chloro-2-phenylthiazolo[2,3-b]benzothiazol-3(2H)-one mesoionic didehydro derivative (C).

[2] = test system: murine Lewis lung carcinoma; test: metastatic spread of murine Lewis lung carcinoma implanted subcutaneously; type: in vivo
Protocol: The ability of the compounds of the invention to influence the growth and metastatic spread of murine Lewis lung carcinoma implanted subcutaneously,is evaluated.
The procedures employed for stock tumor maintenance and transfer, as well as for drug evaluation on the primary tumor, are those found in Cancer Chemotherapy Reports, Vol. 3, No. 2, September 1972, Protocol 1.400. The measurements of metastic spread are made by counting tumor foci on the excised lung under an illuminated magnifying lens or a dissecting microscope, after employment of the Wexler india ink technique (Hilda Wexler, "Accurate Identification of Experimental Pulmonary Metastases", J. Nat. Can. Inst., Volume 36, No. 4, April 1966, pp. 641-643) to accurately identify and count lung metasteses.

thymus gland = test: effect on the thymus gland (thymus weight); type: in vivo, BDF1 mice
Protocol: The effect of the compounds of the invention on the thymus gland is measured. BDF1 mice of 18-20 gms. weight are dosed at 150 mg/kg. with 6-chloro-2-phenylthiazolo[2,3-b]benzothiazolo-3(2H)-one mesoionic didehydro derivative for eight consecutive days. The mice are sacrificed on the ninth day, the thymus glands excised and weighed. The excised thymus glands averaged […]. as compared to […]. for the control group. […] The weight loss is also correlated to dose, and the results are as follows:
Using the same technique, the following compounds of the invention were tested: 6-chloro-2-(p-chlorophenyl)thiazolo[2,3-b]benzothiazol-3(2H)-one mesoionic didehydro derivative (A), 2-phenyl-5,6,7,8-tetrahydrothiazolo[2,3-b]benzothiazol-3(2H)-one mesoionic didehydro derivative (B), 2-phenylthiazolo[2,3-b]-benzothiazol-3(2H)-one mesoionic didehydro derivative (C),6-chloro-2-trifluoroacetylthiazolo[2,3-b]benzothiazol-3(2H)-one mesoionic didehydro derivative (D), 6-chloro-3-hydroxy-2-phenylthiazolo[2,3-b]benzothiazolium bromide (E), 7-ethoxy-3-hydroxy-2-phenylthiazolo[2,3-b]benzothiazolium bromide (F), 3-hydroxy-2-phenylthiazolo[2,3-b]benzothiazolium bromide (G), and 3-hydroxy-2-phenyl-5,6,7,8-tetrahydrothiazolo[2,3-b]benzothiazolium bromide (H).

[3] = test system: autoimmune disease (systemic lupus erythematosus); test: autoimmune disease (systemic lupus erythematosus), immunoglobulin determinations, female NZB/W mice; type: in vivo, female NZB/W F1 mice; conditions: A 100 mg/kg, levamisole 25 mg/kg, i.p. twice weekly
Protocol: (§1) The effect of the compounds of the invention on the development and progress of autoimmune disease (systemic lupus erythematosus) in the New Zealand F1 hydrid mouse (NZB×NZW) is evaluated. NZB/W F1 mice are divided into two groups according to sex. […] IgG, IgM and antinuclear antibody determinations are made on pooled samples of serum obtained by capillary bleedings of the suborbital sinus at approximately monthly intervals. The compounds of the invention are suspended in a solution of physiological saline with 0.16% CMC. All dosing is twice weekly intraperitonially. […] Immunoglobulin values from serum samples are compared with the baseline (pretreatment) for each group.

[4] = test system: adjuvant arthritis (left paw edema); test: adjuvant arthritis test, prophylactic peroral administration; type: in vivo, male Lewis strain rats; conditions: prophylactic p.o.
[5] = test system: established adjuvant arthritis (left paw edema); test: established adjuvant arthritis, therapeutic peroral administration; type: in vivo, male Lewis strain rats; conditions: therapeutic p.o., * = p < 0.05
[6] = test system: autoimmune disease (systemic lupus erythematosus); test: autoimmune disease (systemic lupus erythematosus), immunoglobulin determinations, male NZB/W mice; type: in vivo, male NZB/W F1 mice; conditions: A 100 mg/kg, levamisole 25 mg/kg, i.p. twice weekly
Protocol: as §1

[7] = test system: delayed hypersensitivity reaction; test: guinea pig delayed hypersensitivity assay (PPD); type: in vivo, Male Hartley strain guinea pigs; conditions: 50 mg/kg orally, read 24 hours after challenge, * = p < 0.05
[8] = 150 mg/kg, eight days, in words

For `[O-]c1c(-c2ccccc2)sc2sc3ccc(Cl)cc3[n+]12` [Example 3, 6-Chloro-2-phenylthiazolo[2,3-b]benzothiazol-3(2H)-one mesoionic didehydro derivative], the “IgG plaques, mean (total number of plaques per spleen)” value ([1]; Day 4) was 37,087 plaques per spleen, the “IgM plaques, mean (total number of plaques per spleen)” value ([1]; Day 4) was 63,993 plaques per spleen and the “IgG plaques, mean (total number of plaques per spleen)” value ([1]; Day 6) was 152,745 plaques per spleen. For the same compound, the “IgM plaques, mean (total number of plaques per spleen)” value ([1]; Day 6) was 39,679 plaques per spleen, the “Average Number of Metastases” value ([2]; 25 mg/kg) was 10.8 and the “Average Number of Metastases” value ([2]; 50 mg/kg) was 15.3. The “Average Number of Metastases” value ([2]; 100 mg/kg) was 38.4, the “Average Number of Metastases” value ([2]; 150 mg/kg) was 81.3 and the “Average Number of Metastases” value ([2]; 300 mg/kg) was 99.1. It also gave a Thymus weight (thymus gland; 12.5 mg/kg) of 55.3 mg, a Thymus weight (thymus gland; 50 mg/kg) of 46 mg and a Thymus weight (thymus gland; 100 mg/kg) of 11.8 mg. The Thymus weight (thymus gland; 150 mg/kg, eight consecutive days, ninth day) was 21.8 mg, the “Histopathological examination of the treated thymus glands” value (thymus gland; [8]) was “weight loss to be due solely to the depletion of lymphocytes” and the “size of the cervical, axillary, trachial and inguinal lymph nodes” value (thymus gland; [8]) was “some reduction in the size”. For the same compound, the Thymus weight (thymus gland; 200 mg/kg) was 20.5 mg, the “recovery of thymus weight and histopathological status” value (thymus gland; after resting for three weeks, in words) was “return to normal weight and histopathological status” and the “ANA (antinuclear antibody), Highest Dilution Positive” value (from here on “ANA (antinuclear antibody)”) ([3]; 47 Days) was “neg”. The IgG level ([3]; 47 Days) was 234 mg./100 ml, the IgM level ([3]; 47 Days) was 49 mg./100 ml and the “ANA (antinuclear antibody)” value ([3]; 76 Days) was “neg”. For the same compound, the IgG level ([3]; 76 Days) was 220 mg./100 ml, the IgM level ([3]; 76 Days) was 54 mg./100 ml and the “ANA (antinuclear antibody)” value ([3]; 111 Days) was “neg”. The IgG level ([3]; 111 Days) was 496 mg./100 ml, the IgM level ([3]; 111 Days) was 148 mg./100 ml and the “ANA (antinuclear antibody)” value ([3]; 154 Days) was “neg”. For the same compound, the IgG level ([3]; 154 Days) was 420 mg./100 ml, the IgM level ([3]; 154 Days) was 108 mg./100 ml and the “IgG Total Change From Baseline” value [3] was -40 mg./100 ml. The “IgM Total Change From Baseline” value [3] was “+44 mg./100 ml”, the IgG level ([3]; Pretreatment) was 460 mg./100 ml and the IgM level ([3]; Pretreatment) was 64 mg./100 ml. For the same compound, the “Mean % Inhibition of Left Paw Edema” value ([4]; 10 mg/kg) was 32%, the “Mean % Inhibition of Left Paw Edema” value ([4]; 25 mg/kg, * = p < 0.05?) was 41% and the “Mean % Inhibition of Left Paw Edema” value ([4]; 50 mg/kg, * = p < 0.05?) was 63%. The “Mean % Inhibition of Left Paw Edema” value ([5]; 4th day of dosing, 12.5 mg/kg) was 94%, the “Mean % Inhibition of Left Paw Edema” value ([5]; 4th day of dosing, 50 mg/kg) was 67% and the “Mean % Inhibition of Left Paw Edema” value ([5]; 7th day of dosing, 12.5 mg/kg) was 66%. The “Mean % Inhibition of Left Paw Edema” value ([5]; 7th day of dosing, 50 mg/kg) was 58%, the “ANA (antinuclear antibody)” value ([6]; 47 Days) was “neg” and the IgG level ([6]; 47 Days) was 234 mg./100 ml. For the same compound, the IgM level ([6]; 47 Days) was 48 mg./100 ml, the “ANA (antinuclear antibody)” value ([6]; 76 Days) was “neg” and the IgG level ([6]; 76 Days) was 240 mg./100 ml. The IgM level ([6]; 76 Days) was 49 mg./100 ml, the “ANA (antinuclear antibody)” value ([6]; 111 Days) was “neg” and the IgG level ([6]; 111 Days) was 240 mg./100 ml. The IgM level ([6]; 111 Days) was 80 mg./100 ml, the “ANA (antinuclear antibody)” value ([6]; 154 Days) was “neg” and the IgG level ([6]; 154 Days) was 324 mg./100 ml. The IgM level ([6]; 154 Days) was 96 mg./100 ml, the “IgG Total Change From Baseline” value [6] was -126 mg./100 ml and the “IgM Total Change From Baseline” value [6] was “+52.5 mg./100 ml”. The IgG level ([6]; Pretreatment) was 450 mg./100 ml, the IgM level ([6]; Pretreatment) was 43.5 mg./100 ml and the “Mean % Inhibition of Paw Edema” value ([7]; 6 hours after challenge) was 41%. The “Mean % Inhibition of Paw Edema” value ([7]; 24 hours before challenge) was 43%.
